PubChem BioAssay (NCI)
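Where inhibition never reached the appropriate level, the endpoint shown equals the highest concentration tested. Otherwise, values were interpolated linearly from a five-concentration, 48-hour dose response in 96-well plates. At the TGI there is no net growth.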

Key:
Test in all cases: NCI anticancer screen, dose series, 48 h
[1] = tested on: RPMI-8226 leukemia
[2] = tested on: SNB-75 CNS
[3] = tested on: MDA-N
[4] = tested on: OVCAR-8 ovarian
[5] = tested on: SK-MEL-2 melanoma
[6] = tested on: MDA-MB-435
[7] = tested on: NCI-H522 lung
[8] = tested on: SR leukemia
[9] = tested on: OVCAR-4 ovarian
[10] = tested on: LOX IMVI melanoma
[11] = tested on: NCI/ADR-RES ovarian
[12] = tested on: TK-10 renal
[13] = tested on: OVCAR-5 ovarian
[14] = tested on: HCT-116 colon
[15] = tested on: PC-3 prostate
[16] = tested on: OVCAR-3 ovarian
[17] = tested on: NCI-H226 lung
[18] = tested on: HOP-62 NSCLC
[19] = tested on: A549 NSCLC
[20] = tested on: T-47D breast
[21] = tested on: 786-0 renal
[22] = tested on: ACHN renal
[23] = tested on: RXF 393 renal
[24] = tested on: K-562 leukemia
[25] = tested on: HCT-15 colon
[26] = tested on: SNB-19 CNS
[27] = tested on: MDA-MB-231 breast
[28] = tested on: CAKI-1 renal
[29] = tested on: SF-268 CNS
[30] = tested on: SN12C renal
[31] = tested on: MCF7 breast
[32] = tested on: M14 melanoma
[33] = tested on: NCI-H23 lung
[34] = tested on: SW-620 colon
[35] = tested on: HOP-92 NSCLC
[36] = tested on: KM12 colon
[37] = tested on: COLO 205 colon
[38] = tested on: CCRF-CEM leukemia
[39] = tested on: EKVX NSCLC
[40] = tested on: HT29 colon
[41] = tested on: SK-MEL-28 melanoma
[42] = tested on: SF-539 CNS
[43] = tested on: IGROV1 ovarian
[44] = tested on: A498 renal
[45] = tested on: SK-OV-3 ovarian
[46] = tested on: HCC-2998 colon
[47] = tested on: MALME-3M melanoma
[48] = tested on: SK-MEL-5 melanoma
[49] = tested on: HS 578T breast
[50] = tested on: HL-60(TB) leukemia
[51] = tested on: UACC-257 melanoma
[52] = tested on: UACC-62 melanoma
[53] = tested on: UO-31 renal
[54] = tested on: U251 CNS
[55] = tested on: NCI-H460 lung
[56] = tested on: DU-145 prostate
[57] = tested on: SF-295 CNS
[58] = tested on: MOLT-4 leukemia

In the case of `CC1=C(CO)C2=C(C)C3(CC3)[C@@](C)(O)C(=O)C2=C1`, the TGI [1] is reported as over 81600 nM, the TGI [2] is reported as 473 nM and the TGI [3] is reported as 3250 nM. It also gave a TGI [4] of 631 nM, a TGI [5] of 367 nM and a TGI [6] of 5810 nM. It also gave a TGI [7] of 682 nM, a TGI [8] of over 100000 nM and a TGI [9] of 703 nM. It also gave a TGI [10] of 3140 nM, a TGI [11] of 698 nM and a TGI [12] of 1130 nM. It also gave a TGI [13] of 553 nM, a TGI [14] of 504 nM and a TGI [15] of 1310 nM. For the same compound, the TGI [16] was 735 nM, the TGI [17] was 528 nM and the TGI [18] was 400 nM. The TGI [19] was 1640 nM, the TGI [20] was 2480 nM and the TGI [21] was 474 nM. For the same compound, the TGI [22] was 1520 nM, the TGI [23] was 159 nM and the TGI [24] was over 100000 nM. The TGI [25] was 5170 nM, the TGI [26] was 10600 nM and the TGI [27] was 1340 nM. The TGI [28] was 760 nM, the TGI [29] was 2570 nM and the TGI [30] was 5210 nM. The TGI [31] was 1870 nM, the TGI [32] was 698 nM and the TGI [33] was 284 nM. It also gave a TGI [34] of over 30400 nM, a TGI [35] of 639 nM and a TGI [36] of 2810 nM. It also gave a TGI [37] of 298 nM, a TGI [38] of over 28600 nM and a TGI [39] of 535 nM. For the same compound, the TGI [40] was 1120 nM, the TGI [41] was 1440 nM and the TGI [42] was 371 nM. The TGI [43] was 529 nM, the TGI [44] was 507 nM and the TGI [45] was 926 nM. For the same compound, the TGI [46] was 329 nM, the TGI [47] was 494 nM and the TGI [48] was 374 nM. For the same compound, the TGI [49] was 1510 nM, the TGI [50] was 1790 nM and the TGI [51] was 487 nM.

`c1ccc2c(c1)SCCC2NC1=NCCO1` (configuration not stated) gave a TGI [1] of over 100000 nM, a TGI [2] of over 100000 nM and a TGI [52] of over 100000 nM. It also gave a TGI [3] of over 100000 nM, a TGI [4] of over 100000 nM and a TGI [5] of over 100000 nM. The TGI [6] was over 100000 nM, the TGI [7] was over 100000 nM and the TGI [8] was over 100000 nM. For the same compound, the TGI [9] was over 100000 nM, the TGI [10] was over 100000 nM and the TGI [11] was over 100000 nM. It also gave a TGI [53] of over 100000 nM, a TGI [12] of over 100000 nM and a TGI [13] of over 100000 nM. For the same compound, the TGI [14] was over 100000 nM, the TGI [15] was over 100000 nM and the TGI [16] was over 100000 nM. It also gave a TGI [17] of over 100000 nM, a TGI [18] of over 100000 nM and a TGI [19] of over 100000 nM. It also gave a TGI [20] of over 100000 nM, a TGI [21] of over 100000 nM and a TGI [22] of over 100000 nM. It also gave a TGI [23] of over 100000 nM, a TGI [24] of over 100000 nM and a TGI [25] of over 100000 nM. For the same compound, the TGI [26] was over 100000 nM, the TGI [54] was over 100000 nM and the TGI [27] was over 100000 nM. It also gave a TGI [28] of over 100000 nM, a TGI [29] of over 100000 nM and a TGI [30] of over 100000 nM. For the same compound, the TGI [55] was over 100000 nM, the TGI [31] was over 100000 nM and the TGI [32] was over 100000 nM. For the same compound, the TGI [33] was over 100000 nM, the TGI [34] was over 100000 nM and the TGI [36] was over 100000 nM. The TGI [37] was over 100000 nM, the TGI [56] was over 100000 nM and the TGI [38] was over 100000 nM. The TGI [57] was over 100000 nM, the TGI [39] was over 100000 nM and the TGI [40] was over 100000 nM. The TGI [41] was over 100000 nM, the TGI [58] was over 100000 nM and the TGI [42] was over 100000 nM. For the same compound, the TGI [43] was over 100000 nM, the TGI [44] was over 100000 nM and the TGI [45] was over 100000 nM. It also gave a TGI [46] of over 100000 nM, a TGI [47] of over 100000 nM and a TGI [48] of over 100000 nM. The TGI [49] was over 100000 nM and the TGI [50] was over 100000 nM.
